According to patent publication US20050191735A1, “Oxidoreductase” (priority 2003, published 2005):
Where two headings read alike, the source gives them in different places.

Experiments:
[1] = system: recombinant Lactobacillus reuteri oxidoreductase; assay: Substrate spectrum in standard measurement mixture; type: biochemical; details: for NADP-dependent dehydrogenase activity: oxidation of the hydroxy ester
[2] = system: L. reuteri oxidoreductase; assay: Solvent stability: enzyme activity after contact with organic solvents; type: biochemical, Lactobacillus reuteri; details: for Activity 8 h / Activity 24 h: room temperature; for stability with respect to organic solvents: in words
Method: The enzyme stability when making contact with organic solvents was studied by diluting the L. reuteri oxidoreductase 1:400 (in the case of water-miscible organic solvents) with the solvent mixtures indicated and incubating at room temperature. Subsequently, 10 μl of the enzyme solution were used in the standard assay mixture. Here too, the starting value was set to 100% after dilution in the buffer (potassium phosphate buffer 100 mM, pH=7.0, 1 mM MgCl2) and all other values were related thereto.
In the case of the water-immiscible organic solvents, dilution was likewise carried out in potassium phosphate buffer, the same volume of organic solvent was added to the mixture and the mixture incubated at room temperature in a thermal mixer at rpm=170. The activity was measured from the aqueous phase.

[3] = Temperature stability of recombinant L. reuteri oxidoreductase; type: physicochemical; details: after only 30 min
Method: The temperature stability for the range from 15° C. to 70° C. was determined in a manner similar to that described under 5.2. […] Here too, the starting value used was the measurement value which is obtained immediately after diluting the enzyme in potassium phosphate buffer 50 mM pH=7.0 and which was set to 100% here, too.

[4] = substrate: CCCC(=O)C(=O)OCC; assay: Determination of Km and vmax; type: biochemical, Lactobacillus reuteri; details: other: potassium phosphate buffer pH=7.0, enzyme solution 1:300
Method: The enzyme solution used was the 1:300 diluted lysate (600 μl) obtained from 0.1 g of recombinant E. coli cells.

[5] = Temperature optimum of recombinant L. reuteri oxidoreductase; type: biochemical
[6] = pH stability of recombinant L. reuteri oxidoreductase; type: physicochemical
Method: The dependence of the activity of the enzyme on storage in buffers of different pH was studied for the pH range from 4 to 11. For this purpose, various buffers (50 mM) in the pH range from 4 to 11 were prepared and the enzyme overexpressed in example 4 was diluted therein 1:200 and incubated for 30, 60 and 300 min. All buffers contained 1 mM MgCl2. 10 μl thereof were then used in the normal activity assay. The starting value here is the measurement value obtained immediately after diluting the enzyme in potassium phosphate buffer 50 mM pH=7.0. Said value corresponded under predefined conditions to a change in extinction of 0.70/min and was set to 100% and all subsequent measurement values were related to this value.

[7] = pH optimum of recombinant L. reuteri oxidoreductase; type: biochemical
Method: Preparation of the following measurement buffers, all of which are 50 mM, contain 1 mM MgCl2 and have different pH values.
Enzyme diluted as required (1:20)
A pH optimum of between 6.5 and 7 was determined for the enzyme of the invention.

[8] = Oxidation, activity with ethyl 2-oxo-4-phenylbutyrate set to 100%
[9] = reduction with NADPH, activity with ethyl 2-oxo-4-phenylbutyrate set to 100%
[10] = water-miscible solvent mixture or buffer, enzyme 1:400, starting value 100%
[11] = water-immiscible solvent, same volume as buffer, activity from the aqueous phase

Molecule: CCOC(=O)[C@H](O)CCc1ccccc1
- Relative activity % [1, 8]: 0%
- NADP-dependent dehydrogenase activity [1]: no NADP-dependent dehydrogenase activity

Molecule: CC(=O)Cc1ccccc1 [1-Phenyl-2-propanone]
- Relative activity % [1, 9]: 3%

Molecule: O=C(CCl)c1cccc(Cl)c1 [2-Chloro-l-(3-chloro-phenyl)-ethan-1-one]
- Relative activity % [1]: 0%

Molecule: CCCCCCC(C)=O [2-Octanone]
- Relative activity % [1, 9]: 1%

Molecule: O=C(O)C(=O)Cc1ccccc1 [2-Oxo-3-phenyl-propionic acid]
- Relative activity % [1, 9]: 0.5%

Molecule: CCCC(=O)C(=O)O [2-Oxovaleric acid]
- Relative activity % [1, 9]: 0%

Molecule: CC(C)O [2-Propanol]
- Relative activity % [1, 8]: 0%

Molecule: CCC(=O)C(=O)O [2-oxobutyric acid]
- Relative activity % [1, 9]: 0%

Molecule: CCCCCC(=O)CC [3-Octanone]
- Relative activity % [1, 9]: 4%

Molecule: CCO [5% EtOH, EtOH]
- Activity 8 h [2, 10]: 64%
- Activity 24 h [2, 10]: 65%

Molecule: CC(C)O [5% Isopropanol, Isopropanol]
- Activity 8 h [2, 10]: 77%
- Activity 24 h [2, 10]: 77%

Molecule: C[S+](C)[O-] [10% DSMO]
- Activity 8 h [2, 10]: 80%
- Activity 24 h [2, 10]: 80%

Molecule: CCO [10% EtOH, EtOH]
- Activity 8 h [2, 10]: 68%
- Activity 24 h [2, 10]: 70%

Molecule: CC(C)O [10% Isopropanol, Isopropanol]
- Activity 8 h [2, 10]: 86%
- Activity 24 h [2, 10]: 85%

Molecule: C[S+](C)[O-] [20% DSMO]
- Activity 8 h [2, 10]: 79%
- Activity 24 h [2, 10]: 80%

Molecule: CCO [20% EtOH, EtOH]
- Activity 8 h [2, 10]: 83%
- Activity 24 h [2, 10]: 80%

Molecule: CC(C)O [20% Isopropanol, Isopropanol]
- Activity 8 h [2, 10]: 100%
- Activity 24 h [2, 10]: 100%

Molecule: CCO [30% EtOH, EtOH]
- Activity 8 h [2, 10]: 77%
- Activity 24 h [2, 10]: 75%

Molecule: CC(C)O [30% Isopropanol, Isopropanol]
- Activity 8 h [2, 10]: 0%
- Activity 24 h [2, 10]: 0%

Molecule: CC(C)=O [Acetone]
- Relative activity % [1, 9]: 0%

Molecule: CC(=O)c1ccccc1 [Acetophenone]
- Relative activity % [1, 9]: 0%

Molecule: CCCCOC(C)=O [Butyl acetate]
- Activity 8 h [2, 11]: 74%
- Activity 24 h [2, 11]: 12%

Molecule: CCCCCCCC(=O)c1ccccc1 [Caprylophenone]
- Relative activity % [1, 9]: 0%

Molecule: ClC(Cl)Cl [Chloroform]
- Activity 8 h [2, 11]: 6%
- Activity 24 h [2, 11]: 0%

Molecule: C1CCCCC1 [Cyclohexane]
- Activity 8 h [2, 11]: 113%
- Activity 24 h [2, 11]: 100%

Molecule: CCOCC [Diethyl ether]
- Activity 8 h [2, 11]: 32%
- Activity 24 h [2, 11]: 20%

Molecule: CC(C)OC(C)C [Diisopropyl ether]
- Activity 8 h [2, 11]: 94%
- Activity 24 h [2, 11]: 77%

Molecule: COC(=O)CCCCC(=O)CC(=O)OC [Dimethyl-3-oxo-1,8-octanedioic acid]
- Relative activity % [1, 9]: 42%

Molecule: CCCC(=O)C(=O)OCC [Ethyl 2-oxovalerate]
- Relative activity % [1, 9]: 190%

Molecule: CCOC(=O)CC(=O)CC [Ethyl 3-oxo-valerate]
- Relative activity % [1, 9]: 1.3%

Molecule: CCOC(=O)CC(=O)CCl [Ethyl 4-chloro-acetoacetate]
- Relative activity % [1, 9]: 16%

Molecule: CCOC(=O)CCCCC(=O)CCCl [Ethyl 8-chloro-6-oxooctanoic acid]
- Relative activity % [1, 9]: 190%

Molecule: CCOC(=O)[C@@H](C)O [Ethyl D-lactate]
- Relative activity % [1, 8]: 0%
- NADP-dependent dehydrogenase activity [1]: no NADP-dependent dehydrogenase activity

Molecule: CCOC(=O)[C@H](C)O [Ethyl L-lactate]
- Relative activity % [1, 8]: 0%
- NADP-dependent dehydrogenase activity [1]: no NADP-dependent dehydrogenase activity

Molecule: CCOC(C)=O [Ethyl acetate]
- Activity 8 h [2, 11]: 0%
- Activity 24 h [2, 11]: 0%

Molecule: CCOC(=O)C(=O)c1ccccc1 [Ethyl phenylglyoxylate]
- Relative activity % [1, 9]: 2%

Molecule: CCOC(=O)C(C)=O [Ethyl pyruvate]
- Relative activity % [1, 9]: 2%

Molecule: CCCCCCC [Heptane]
- Activity 8 h [2, 11]: 113%
- Activity 24 h [2, 11]: 100%

Molecule: CCCCCC [Hexane]
- Activity 8 h [2, 11]: 115%
- Activity 24 h [2, 11]: 100%

Molecule: COC(C)(C)C [MTBE]
- Activity 8 h [2, 11]: 90%
- Activity 24 h [2, 11]: 81%

Molecule: COC(=O)CC(C)=O [Methyl acetoacetate]
- Relative activity % [1, 9]: 0.3%

Molecule: O=C(O)C[C@H](O)CCl [S-4-Chloro-3-hydroxy-butyrate]
- Relative activity % [1, 8]: 0%
- NADP-dependent dehydrogenase activity [1]: no NADP-dependent dehydrogenase activity

Molecule: R-4-Chloro-3-hydroxy-butyrate
- Relative activity % [1, 8]: 0%
- NADP-dependent dehydrogenase activity [1]: no NADP-dependent dehydrogenase activity

B1: recombinant L. reuteri oxidoreductase (Limosilactobacillus reuteri subsp. reuteri) (protein)
chain: MKNIMIAGAGVLGSQIAYQTALSGFNVSVYNHHIDTAERRIKALKSDYERDLHLTDKEFQQGLNNIKVITDDVATAVKDADLMIEALPESLELKEQFYEEVSELAPEKTIFASNSSTFIPSQLAPYTDRPEKFLNMHFANQIWKFNVVEIMGTSQTSPEVIEEATKFAREIKMVPVILNKEQHGYILNSLLIPLLASGLSLWAKGVADPAMIDKDWMISTGAPMGPFGILDMVGLRTAAQIERNAYAQTKDESHKEIADKMEQMIQEGHEGKESGQGFYNYPNPAFMDPDFLKH
- enzyme activity after incubation at 55° C. [3]: no longer detectable
- Km [4]: 180 ± 70 µM
- Activity in U/ml of undiluted enzyme ([5]; 15 ° C.): 385 U/ml of undiluted enzyme
- Activity in U/ml of undiluted enzyme ([5]; 20 ° C.): 745 U/ml of undiluted enzyme
- Activity in U/ml of undiluted enzyme ([5]; 25 ° C.): 1090 U/ml of undiluted enzyme
- Activity in U/ml of undiluted enzyme ([5]; 30 ° C.): 1350 U/ml of undiluted enzyme
- Activity in U/ml of undiluted enzyme ([5]; 35 ° C.): 1860 U/ml of undiluted enzyme
- Activity in U/ml of undiluted enzyme ([5]; 40 ° C.): 2500 U/ml of undiluted enzyme
- Activity in U/ml of undiluted enzyme ([5]; 45 ° C.): 2900 U/ml of undiluted enzyme
- Activity in U/ml of undiluted enzyme ([5]; 50 ° C.): 3200 U/ml of undiluted enzyme
- Activity in U/ml of undiluted enzyme ([5]; 55 ° C.): 3800 U/ml of undiluted enzyme
- Activity in U/ml of undiluted enzyme ([5]; 60 ° C.): 617 U/ml of undiluted enzyme
- Activity in U/ml of undiluted enzyme ([5]; 65 ° C.): 180 U/ml of undiluted enzyme
- Activity in U/ml of undiluted enzyme ([5]; 70 ° C.): 90 U/ml of undiluted enzyme
- optimal temperature (maximum activity) ([5]; standard measurement mixture, 15° C. to 70° C.): 55 °C
- remaining activity ([6]; pH 4.0, after 5 h): 50%
- remaining activity ([6]; pH 9.0, after 5 h): 40%
- stability at high pH ([6]; pH values above 9.5): immediate inactivation
- stability with respect to organic solvents [2]: remarkably stable
- stability with respect to organic solvents ([2]; listed as Lactobacillus reuteri oxidoreductase): high stability
- share of maximum activity ([7]; in the pH range from 4.5 to 8): 80%
- activity outside the pH range ([7]; pH values of below 4.0 and above 8.5): rapidly decreasing
